Results from patent US20060121449A1, “Method for selection of compounds which inhibit clonal cell growth and use thereof” (priority 2002, published 2006).
Values joined by “and” are separate entries in the source; they are usually repeats but may differ in a detail not shown here. Identical values can stand only once. “Also recorded” adds a separate entry of the source.

System: polyoma virus transformed BHK21/c13 cells, line S100T1
Assay: Collocation inhibition test: clonal growth in sparsely and densely seeded areas of a cell density gradient of S100T1 cells in soft agar (Exp 13, 17, 19-26);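 note: soft agar cultures in 24-well plates with a cell density gradient in the top layer, compounds applied from DMSO stocks, clonal growth scored in sparse versus dense areas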
Settings: for Growth of treated wells with smallest cell number: 42000 cells/ml; for Growth in low density (sparsely seeded) areas of treated wells: 125000-375000 cells/ml; for Significance: Exp 17 day 14; for Resulting clonal growth of treated cultures: Experiment 26
[1] = Exp 13, 4-OH-OPB 1-3 μM, Colchicine 0.01-0.1 μM
[2] = Exp 13, Low inhibitor conc. (4-OH—OPB 1 μM, Colchicine 10 nM), H: high cell density area
[3] = Exp 13, Low inhibitor conc. (4-OH—OPB 1 μM, Colchicine 10 nM), L: low cell density area
[4] = Exp 13, Medium inhibitor conc. (4-OH—OPB 3 μM, Colchicine 33 nM), H: high cell density area
[5] = Exp 13, Medium inhibitor conc. (4-OH—OPB 3 μM, Colchicine 33 nM), L: low cell density area
[6] = Exp 19, 120000 S100T1 cells/well

CCCCC1(O)C(=O)N(c2ccccc2)N(c2ccc(O)cc2)C1=O (stereo not drawn) [4-OH-OPB, 4-butyl-4-hydroxy-2(p-hydroxyphenyl)-1-phenyl-3,5-pyrazolidinedione]
Growth in locations with high cell density [1]: did not inhibit clonal growth
Growth in locations with low cell density (sparsely seeded cells) [1]: full inhibition on clonal growth of sparsely seeded cells; also recorded: inhibited growth in locations with low cell density even when using low doses
Growth, summary of results after 3 days incubation [2]: +++
Growth, summary of results after 4 days incubation [2]: +++
Growth, summary of results after 3 days incubation [3]: +−
Growth, summary of results after 4 days incubation [3]: +−
Growth, summary of results after 3 days incubation [4]: +++
Growth, summary of results after 4 days incubation [4]: +++
Growth, summary of results after 3 days incubation [5]: −
Growth, summary of results after 4 days incubation [5]: −
Effect on growth in high- and low-density areas (Exp 17, 144000 S100T1 cells/well): good growth of colonies in high-density areas, but no growth in low-density areas
Clonal growth, results read on the day 14 (Exp 17, a: close to densely seeded cell areas, Low: Colchicine 0.1, Podophyllotoxin 0.3, Etoposide 20, 4-OH—OPB 0.67 μM in wells, DMSO 1.16 μl): ++
Clonal growth, results read on the day 14 (Exp 17, a: close to densely seeded cell areas, Medium: Colchicine 0.3, Podophyllotoxin 0.9, Etoposide 60, 4-OH—OPB 2 μM in wells, DMSO 6.8 μl): ++
Clonal growth, results read on the day 14 (Exp 17, b: sparsely seeded areas in the same agar culture, High: Colchicine 1, Podophyllotoxin 3, Etoposide 200, 4-OH—OPB 6.7 μM in wells, DMSO 29.2 μl): −
Clonal growth, results read on the day 14 (Exp 17, b: sparsely seeded areas in the same agar culture, Low: Colchicine 0.1, Podophyllotoxin 0.3, Etoposide 20, 4-OH—OPB 0.67 μM in wells, DMSO 1.16 μl): +
Clonal growth, results read on the day 14 (Exp 17, b: sparsely seeded areas in the same agar culture, Medium: Colchicine 0.3, Podophyllotoxin 0.9, Etoposide 60, 4-OH—OPB 2 μM in wells, DMSO 6.8 μl): −
Effect on growth in densely seeded areas [6]: no significant inhibition
Inhibition of growth in sparsely seeded areas [6]: significant at all concentrations
Clonal growth after 48 hours incubation (Exp 19, high concentration, H: high cell density part of the gradient): ++
Clonal growth after 48 hours incubation (Exp 19, high concentration, L: low cell density part of the gradient): −
Clonal growth after 48 hours incubation (Exp 19, low concentration (exact conc. only in figure), H: high cell density part of the gradient): ++
Clonal growth after 48 hours incubation (Exp 19, low concentration, L: low cell density part of the gradient): −
Clonal growth after 48 hours incubation (Exp 19, medium concentration, H: high cell density part of the gradient): ++
Clonal growth after 48 hours incubation (Exp 19, medium concentration, L: low cell density part of the gradient): −
Concentration with no significant growth inhibition on denser populated areas (Exp 20): 1 to 6 µM and 1 to 18 µM
Inhibiting effect on densely seeded areas, higher doses (6-18 μM) (Exp 20): small or moderate
Inhibiting effect on densely seeded areas, low doses (1 μM) (Exp 20): abscent
Clonal growth after 48 hours (Exp 20, 4-OH—OPB 1 μM, cell number High 225000 (375′/ml), H: high cell density part): +++
Clonal growth after 48 hours (Exp 20, 4-OH—OPB 1 μM, cell number High 225000 (375′/ml), L: low cell density part): −
Clonal growth after 48 hours (Exp 20, 4-OH—OPB 1 μM, cell number Medium 75000 (125′/ml), H: high cell density part): ++(+)
Clonal growth after 48 hours (Exp 20, 4-OH—OPB 1 μM, cell number Medium 75000 (125′/ml), L: low cell density part): −
Clonal growth after 48 hours (Exp 20, 4-OH—OPB 6 μM, cell number High 225000 (375′/ml), H: high cell density part): +
Clonal growth after 48 hours (Exp 20, 4-OH—OPB 6 μM, cell number High 225000 (375′/ml), L: low cell density part): −
Clonal growth after 48 hours (Exp 20, 4-OH—OPB 6 μM, cell number Medium 75000 (125′/ml), H: high cell density part): +
Clonal growth after 48 hours (Exp 20, 4-OH—OPB 6 μM, cell number Medium 75000 (125′/ml), L: low cell density part): −
Clonal growth after 48 hours (Exp 20, 4-OH—OPB 18 μM, cell number High 225000 (375′/ml), H: high cell density part): +
Clonal growth after 48 hours (Exp 20, 4-OH—OPB 18 μM, cell number High 225000 (375′/ml), L: low cell density part): −
Clonal growth after 48 hours (Exp 20, 4-OH—OPB 18 μM, cell number Medium 75000 (125′/ml), H: high cell density part): +
Clonal growth after 48 hours (Exp 20, 4-OH—OPB 18 μM, cell number Medium 75000 (125′/ml), L: low cell density part): −
Growth of treated wells with smallest cell number (Exp 20): did not grow even in dense areas
Growth of treated wells with smallest cell number (Exp 20, listed as 4-OH—OPB): Low cell numbers, 42000 cells/ml gave no
Growth in low density (sparsely seeded) areas of treated wells (Exp 20): very strong inhibition of growth
Growth in low density (sparsely seeded) areas of treated wells (Exp 20, listed as 4-OH—OPB): growth. 125000-375000 cells/ml gave no
Concentration with anti clonal effect on sparsely seeded cells (Exp 20, cross-titration of cell number and dose, 48 hours): 1 µM and 1 to 18 µM
Clonal growth (Exp 21, 117000 cells per well, Low concentration (see figure), H: area with high cell density): ++(+)
Clonal growth (Exp 21, High concentration, H: area with high cell density): +
Clonal growth (Exp 21, High concentration, L: area with low cell density): −
Clonal growth (Exp 21, Low concentration, L: area with low cell density): +−
Clonal growth (Exp 21, Medium concentration, H: area with high cell density): ++(+)
Clonal growth (Exp 21, Medium concentration, L: area with low cell density): −
Growth in dense areas, high concentration (Exp 22, control inhibitor): absent
Growth in dense areas, medium concentration (Exp 22, control inhibitor): doubtful
Effect on growth (Exp 23, 180000 S100T1 cells/well): complete inhibition of clonal growth in sparsely seeded areas
Clonal growth in densely seeded areas at high or medium concentrations (9 and 3 μM) (Exp 24, control): reduced clonal growth
Effect at 0.11 μM (Exp 24, control): The effect was gone
Effect at 0.11 μM (Exp 25, control): no growth inhibition was observed
Effect at 3 μM (Exp 25, control): substantial inhibition of the growth in densely seeded areas
Densely seeded parts of the gradient, high concentration (Exp 26, read after 24 hours): did not affect the densely seeded parts of the gradient
Inhibition of sparsely seeded cells, high and medium concentrations (Exp 26, read after 24 hours): nice and complete inhibition
Sparsely seeded cells, low concentration (Exp 26, read after 24 hours): break through of clonal growth
Significance (a: close to densely seeded cell areas, High: Colchicine 1, Podophyllotoxin 3, Etoposide 200, 4-OH—OPB 6.7 μM in wells, DMSO 29.2 μl): Probably
Significance (a: close to densely seeded cell areas, Low: Colchicine 0.1, Podophyllotoxin 0.3, Etoposide 20, 4-OH—OPB 0.67 μM in wells, DMSO 1.16 μl): No
Significance (a: close to densely seeded cell areas, Medium: Colchicine 0.3, Podophyllotoxin 0.9, Etoposide 60, 4-OH—OPB 2 μM in wells, DMSO 6.8 μl): No
Significance (b: sparsely seeded areas, High: Colchicine 1, Podophyllotoxin 3, Etoposide 200, 4-OH—OPB 6.7 μM in wells, DMSO 29.2 μl): Yes
Significance (b: sparsely seeded areas, Low: Colchicine 0.1, Podophyllotoxin 0.3, Etoposide 20, 4-OH—OPB 0.67 μM in wells, DMSO 1.16 μl): No
Significance (b: sparsely seeded areas, Medium: Colchicine 0.3, Podophyllotoxin 0.9, Etoposide 60, 4-OH—OPB 2 μM in wells, DMSO 6.8 μl): Yes
Clonal growth (Experiment 22, H: area with high cell density, High concentration): −
Clonal growth (Experiment 22, H: area with high cell density, Low concentration): ++
Clonal growth (Experiment 22, H: area with high cell density, Medium concentration): (+)
Clonal growth (Experiment 22, L: area with low cell density, High concentration): −
Clonal growth (Experiment 22, L: area with low cell density, Low concentration): −
Clonal growth (Experiment 22, L: area with low cell density, Medium concentration): −
Clonal growth (Experiment 23, A (area with high cell density), High concentration, 48 hours): (+)
Clonal growth (Experiment 23, A (area with high cell density), Low concentration, 48 hours): ++(+)
Clonal growth (Experiment 23, A (area with high cell density), Medium concentration, 48 hours): +
Clonal growth (Experiment 23, B (area with low cell density), High concentration, 48 hours): −
Clonal growth (Experiment 23, B (area with low cell density), Low concentration, 48 hours): −
Clonal growth (Experiment 23, B (area with low cell density), Medium concentration, 48 hours): −
Clonal growth (Experiment 24, H: area with high cell density, High concentration, 48 hours): +
Clonal growth (Experiment 24, H: area with high cell density, Low concentration, 48 hours): ++(+)
Clonal growth (Experiment 24, H: area with high cell density, Medium concentration, 48 hours): +
Clonal growth (Experiment 24, H: area with high cell density, X-low concentration, 48 hours): +(+)
Clonal growth (Experiment 24, H: area with high cell density, XX-low concentration, 48 hours): ++
Clonal growth (Experiment 24, L: area with low cell density, High concentration, 48 hours): −
Clonal growth (Experiment 24, L: area with low cell density, Low concentration, 48 hours): −
Clonal growth (Experiment 24, L: area with low cell density, Medium concentration, 48 hours): −
Clonal growth (Experiment 24, L: area with low cell density, X-low concentration, 48 hours): −
Clonal growth (Experiment 24, L: area with low cell density, XX-low concentration, 48 hours): (+)
Clonal growth (Experiment 25, H: area with high cell density, High concentration, after 48 hours incubation): (+)
Clonal growth (Experiment 25, H: area with high cell density, Low concentration, after 48 hours incubation): ++(+)
Clonal growth (Experiment 25, H: area with high cell density, Medium concentration, after 48 hours incubation): ++
Clonal growth (Experiment 25, H: area with high cell density, X-low concentration, after 48 hours incubation): ++
Clonal growth (Experiment 25, L: area with low cell density, High concentration, after 48 hours incubation): −
Clonal growth (Experiment 25, L: area with low cell density, Low concentration, after 48 hours incubation): −
Clonal growth (Experiment 25, L: area with low cell density, Medium concentration, after 48 hours incubation): −
Clonal growth (Experiment 25, L: area with low cell density, X-low concentration, after 48 hours incubation): ++
Resulting clonal growth of treated cultures (H: area with high cell density, High concentration, read after 24 hours): ++
Resulting clonal growth of treated cultures (H: area with high cell density, Low concentration, read after 24 hours): ++
Resulting clonal growth of treated cultures (H: area with high cell density, Medium concentration, read after 24 hours): ++
Resulting clonal growth of treated cultures (L: area with low cell density, High concentration, read after 24 hours): −
Resulting clonal growth of treated cultures (L: area with low cell density, Low concentration, read after 24 hours): (+)
Resulting clonal growth of treated cultures (L: area with low cell density, Medium concentration, read after 24 hours): −
Control of metastatic cells leaving tumour (ability of cells to leave a tumour, grow and infiltrate locally or grow in sparsely seeded areas, concluded from Exp 17): yes
Control of settlement of metastatic cells (single cells or very few cells spread to distant sites, concluded from Exp 17): completely
Toxicity for body or dense cell populations (supposed main advantages or disadvantages if used in cancer treatment, concluded from Exp 17): none or small
